System: subjects with moderate-to-severe plaque psoriasis
Experiment: Safety, adverse events, Example 2 through Week 56
Assay type: in vivo, human
Conditions: through Week 56
Excerpt: The LTE safety analysis was based on randomized participants in Example who entered the present long-term extension study and received at least one dose of study intervention (including a partial dose) during the study period.

[1] = Placebo → 100 mg QD after crossover

CC(=O)NCCCC[C@@H]1NC(=O)[C@H](Cc2c[nH]c3c(C)cccc23)NC(=O)[C@H]([C@@H](C)O)NC(=O)[C@H](CC(N)=O)NC(=O)[C@@H](NC(C)=O)C(C)(C)SSC(C)(C)[C@@H](C(=O)N[C@@H](Cc2ccc(OCCN)cc2)C(=O)N[C@@H](Cc2ccc3ccccc3c2)C(=O)NC2(C(=O)N[C@@H](CCC(=O)O)C(=O)N[C@@H](CC(N)=O)C(=O)N[C@@H](Cc3cccnc3)C(=O)N(C)CC(N)=O)CCOCC2)NC1=O [IL-23 receptor antagonist peptide, Ac-[Pen]*-N-T-[W(7-Me)]-[Lys(Ac)]-[Pen]*-Phe[4-(2-aminoethoxy)]-[2-Nal]-[THP]-E-N-[3-Pal]-Sarc-NH2 (*[Pen]-[Pen]* formdisulfidebond)]
Subjects with Mouth ulceration: 0 | Subjects with Tendonitis: 0 | Subjects with 1 or more Adverse events (25 mg BID): (78.0%) | Subjects with 1 or more Adverse events: Alanine aminotransferase increased (25 mg BID): (2.4%) | Subjects with 1 or more Adverse events: Aspartate aminotransferase increased (25 mg BID): (2.4%) | Subjects with 1 or more Adverse events: Bronchitis (25 mg BID): (4.9%) | Subjects with 1 or more Adverse events: COVID-19 (25 mg BID): (22.0%) | Subjects with 1 or more Adverse events: Diarrhea (25 mg BID): (4.9%) | Subjects with 1 or more Adverse events: Headache (25 mg BID): (7.3%) | Subjects with 1 or more Adverse events: Influenza (25 mg BID): (7.3%) | Subjects with 1 or more Adverse events: Nasopharyngitis (25 mg BID): (19.5%) | Subjects with 1 or more Adverse events: Upper respiratory tract infection (25 mg BID): (7.3%) | Subjects with 1 or more Adverse events: Urinary tract infection (25 mg BID): (2.4%) | Subjects with 1 or more Serious adverse events (25 mg BID): (7.3%) | Subjects with 1 or more Serious adverse events: Ligament injury (25 mg BID): (2.4%) | Subjects with 1 or more Serious adverse events: Tonsillar hypertrophy (25 mg BID): (2.4%) | Subjects with 1 or more Serious adverse events: Ventricular dysfunction (25 mg BID): (2.4%) | Subjects with 1 or more treatment-emergent adverse events leading to discontinuation of study agent (25 mg BID): (4.9%) | Subjects with 1 or more Adverse events (25 mg QD): (55.8%) | Subjects with 1 or more Adverse events: Alanine aminotransferase increased (25 mg QD): (2.3%) | Subjects with 1 or more Adverse events: Arthralgia (25 mg QD): (2.3%) | Subjects with 1 or more Adverse events: Aspartate aminotransferase increased (25 mg QD): (2.3%) | Subjects with 1 or more Adverse events: Bronchitis (25 mg QD): (4.7%) | Subjects with 1 or more Adverse events: COVID-19 (25 mg QD): (14.0%) | Subjects with 1 or more Adverse events: Cough (25 mg QD): (2.3%) | Subjects with 1 or more Adverse events: Diarrhea (25 mg QD): (4.7%) | Subjects with 1 or more Adverse events: Headache (25 mg QD): (4.7%) | Subjects with 1 or more Adverse events: Nasopharyngitis (25 mg QD): (7.0%) | Subjects with 1 or more Adverse events: Upper respiratory tract infection (25 mg QD): (16.3%) | Subjects with 1 or more Adverse events: Urinary tract infection (25 mg QD): (4.7%) | Subjects with 1 or more treatment-emergent adverse events leading to discontinuation of study agent (25 mg QD): (7.0%) | Subjects with 1 or more Adverse events (50 mg QD): (74.4%) | Subjects with 1 or more Adverse events: Alanine aminotransferase increased (50 mg QD): (2.3%) | Subjects with 1 or more Adverse events: Arthralgia (50 mg QD): (2.3%) | Subjects with 1 or more Adverse events: Aspartate aminotransferase increased (50 mg QD): (2.3%) | Subjects with 1 or more Adverse events: Bronchitis (50 mg QD): (9.3%) | Subjects with 1 or more Adverse events: COVID-19 (50 mg QD): (14.0%) | Subjects with 1 or more Adverse events: Cough (50 mg QD): (4.7%) | Subjects with 1 or more Adverse events: Diarrhea (50 mg QD): (9.3%) | Subjects with 1 or more Adverse events: Headache (50 mg QD): (2.3%) | Subjects with 1 or more Adverse events: Influenza (50 mg QD): (2.3%) | Subjects with 1 or more Adverse events: Nasopharyngitis (50 mg QD): (30.2%) | Subjects with 1 or more Adverse events: Upper respiratory tract infection (50 mg QD): (7.0%) | Subjects with 1 or more Adverse events: Urinary tract infection (50 mg QD): (2.3%) | Subjects with 1 or more Serious adverse events (50 mg QD): (7.0%) | Subjects with 1 or more Serious adverse events: Coronary artery disease (50 mg QD): (2.3%) | Subjects with 1 or more Serious adverse events: Foot deformity (50 mg QD): (2.3%) | Subjects with 1 or more Serious adverse events: Infected cyst (50 mg QD): (2.3%) | Subjects with 1 or more Serious adverse events: Non-cardiac chest pain (50 mg QD): (2.3%) | Subjects with 1 or more treatment-emergent adverse events leading to discontinuation of study agent (50 mg QD): (4.7%) | Subjects with 1 or more Adverse events (100 mg BID): (76.2%) | Subjects with 1 or more Adverse events: Alanine aminotransferase increased (100 mg BID): (9.5%) | Subjects with 1 or more Adverse events: Arthralgia (100 mg BID): (4.8%) | Subjects with 1 or more Adverse events: Aspartate aminotransferase increased (100 mg BID): (7.1%) | Subjects with 1 or more Adverse events: COVID-19 (100 mg BID): (16.7%) | Subjects with 1 or more Adverse events: Cough (100 mg BID): (4.8%) | Subjects with 1 or more Adverse events: Diarrhea (100 mg BID): (2.4%) | Subjects with 1 or more Adverse events: Headache (100 mg BID): (2.4%) | Subjects with 1 or more Adverse events: Influenza (100 mg BID): (2.4%) | Subjects with 1 or more Adverse events: Nasopharyngitis (100 mg BID): (11.9%) | Subjects with 1 or more Adverse events: Upper respiratory tract infection (100 mg BID): (11.9%) | Subjects with 1 or more Adverse events: Urinary tract infection (100 mg BID): (4.8%) | Subjects with 1 or more Serious adverse events (100 mg BID): (2.4%) | Subjects with 1 or more Serious adverse events: Uterine leiomyoma (100 mg BID): (2.4%) | Subjects with 1 or more treatment-emergent adverse events leading to discontinuation of study agent (100 mg BID): (2.4%) | Subjects with 1 or more Adverse events (100 mg QD): (72.1%) | Subjects with 1 or more Adverse events: Arthralgia (100 mg QD): (7.0%) | Subjects with 1 or more Adverse events: COVID-19 (100 mg QD): (11.6%) | Subjects with 1 or more Adverse events: Cough (100 mg QD): (7.0%) | Subjects with 1 or more Adverse events: Diarrhea (100 mg QD): (2.3%) | Subjects with 1 or more Adverse events: Headache (100 mg QD): (11.6%) | Subjects with 1 or more Adverse events: Influenza (100 mg QD): (2.3%) | Subjects with 1 or more Adverse events: Nasopharyngitis (100 mg QD): (25.6%) | Subjects with 1 or more Adverse events: Upper respiratory tract infection (100 mg QD): (4.7%) | Subjects with 1 or more Serious adverse events (100 mg QD): (7.0%) | Subjects with 1 or more Serious adverse events: COVID-19 (100 mg QD): (2.3%) | Subjects with 1 or more Serious adverse events: Diverticulitis (100 mg QD): (2.3%) | Subjects with 1 or more Serious adverse events: Intervertebral disc protrusion (100 mg QD): (2.3%) | Subjects with 1 or more Serious adverse events: Suicide attempt (100 mg QD): (2.3%) | Subjects with 1 or more treatment-emergent adverse events leading to discontinuation of study agent (100 mg QD): (4.7%) | Subjects with 1 or more Adverse events (Combined): (70.4%) | Subjects with 1 or more Adverse events: Alanine aminotransferase increased (Combined): (3.6%) | Subjects with 1 or more Adverse events: Arthralgia (Combined): (3.2%) | Subjects with 1 or more Adverse events: Aspartate aminotransferase increased (Combined): (2.8%) | Subjects with 1 or more Adverse events: Bronchitis (Combined): (3.6%) | Subjects with 1 or more Adverse events: COVID-19 (Combined): (14.2%) | Subjects with 1 or more Adverse events: Cough (Combined): (3.2%) | Subjects with 1 or more Adverse events: Diarrhea (Combined): (4.5%) | Subjects with 1 or more Adverse events: Headache (Combined): (4.9%) | Subjects with 1 or more Adverse events: Influenza (Combined): (2.8%) | Subjects with 1 or more Adverse events: Nasopharyngitis (Combined): (19.8%) | Subjects with 1 or more Adverse events: Upper respiratory tract infection (Combined): (9.7%) | Subjects with 1 or more Adverse events: Urinary tract infection (Combined): (3.2%) | Subjects with 1 or more Serious adverse events (Combined): (4.5%) | Subjects with 1 or more Serious adverse events: COVID-19 (Combined): (0.4%) | Subjects with 1 or more Serious adverse events: Cerebrovascular accident (Combined): (0.4%) | Subjects with 1 or more Serious adverse events: Coronary artery disease (Combined): (0.4%) | Subjects with 1 or more Serious adverse events: Diverticulitis (Combined): (0.4%) | Subjects with 1 or more Serious adverse events: Foot deformity (Combined): (0.4%) | Subjects with 1 or more Serious adverse events: Infected cyst (Combined): (0.4%) | Subjects with 1 or more Serious adverse events: Intervertebral disc protrusion (Combined): (0.4%) | Subjects with 1 or more Serious adverse events: Ligament injury (Combined): (0.4%) | Subjects with 1 or more Serious adverse events: Non-cardiac chest pain (Combined): (0.4%) | Subjects with 1 or more Serious adverse events: Suicide attempt (Combined): (0.4%) | Subjects with 1 or more Serious adverse events: Tonsillar hypertrophy (Combined): (0.4%) | Subjects with 1 or more Serious adverse events: Uterine leiomyoma (Combined): (0.4%) | Subjects with 1 or more Serious adverse events: Ventricular dysfunction (Combined): (0.4%) | Subjects with 1 or more treatment-emergent adverse events leading to discontinuation of study agent (Combined): (4.0%) | Subjects with 1 or more Adverse events [1]: (65.7%) | Subjects with 1 or more Adverse events: Alanine aminotransferase increased [1]: (5.7%) | Subjects with 1 or more Adverse events: Arthralgia [1]: (2.9%) | Subjects with 1 or more Adverse events: Aspartate aminotransferase increased [1]: (2.9%) | Subjects with 1 or more Adverse events: Bronchitis [1]: (2.9%) | Subjects with 1 or more Adverse events: COVID-19 [1]: (5.7%) | Subjects with 1 or more Adverse events: Diarrhea [1]: (2.9%) | Subjects with 1 or more Adverse events: Influenza [1]: (2.9%) | Subjects with 1 or more Adverse events: Nasopharyngitis [1]: (25.7%) | Subjects with 1 or more Adverse events: Upper respiratory tract infection [1]: (11.4%) | Subjects with 1 or more Adverse events: Urinary tract infection [1]: (5.7%) | Subjects with 1 or more Serious adverse events [1]: (2.9%) | Subjects with 1 or more Serious adverse events: Cerebrovascular accident [1]: (2.9%)

— US20260232767A1, “INTERLEUKIN-23 RECEPTOR ANTAGONIST PEPTIDES FOR USE IN THE TREATMENT OF PSORIASIS” (Janssen Pharmaceutica NV, priority 2023, published 2026)
